This experiment concerns the target T1, GPR103 V129^3.36A (Homo sapiens, UniProt Q96P65, V129A).
T1 construct: we used human full-length QRFPR-encoding plasmids; expressed in transfected cells; host or cells: HEK293 cells, pCAGGS vector
T1 sequence (Q96P65 1-431 V129A): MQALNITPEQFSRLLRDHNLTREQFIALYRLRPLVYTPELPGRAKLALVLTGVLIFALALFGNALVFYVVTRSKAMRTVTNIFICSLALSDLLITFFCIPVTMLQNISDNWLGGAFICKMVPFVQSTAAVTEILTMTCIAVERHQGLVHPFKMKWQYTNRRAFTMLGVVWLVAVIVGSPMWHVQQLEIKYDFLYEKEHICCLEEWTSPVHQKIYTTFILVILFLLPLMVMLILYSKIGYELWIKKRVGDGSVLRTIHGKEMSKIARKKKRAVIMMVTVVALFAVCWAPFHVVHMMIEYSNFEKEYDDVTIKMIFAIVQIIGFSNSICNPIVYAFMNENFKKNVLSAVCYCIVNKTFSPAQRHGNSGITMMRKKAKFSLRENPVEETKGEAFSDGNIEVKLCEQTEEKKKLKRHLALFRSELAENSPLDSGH
The experiment can be described thus: TGFα shedding assay; Exp. level WT (1:20). It counts as cell-based.

Where two headings read alike, the source gives them in different places. No end group written: not given here.

As for TSGPLGNLAEELNGYSRKKGGFSFRF-NH2 [QRFP26], the Emax by setting is: (Exp. #1) 92.74 % WT; (Exp. #2) 87.58 % WT; (Exp. #3) 97.49 % WT; (mean, read-out: Emax) 92.6%; (n = 3, read-out: Emax) 96.2 ± 2.3%. Further, for the setting “n = 3”, the EC50 was 0.135 µM.

Source of the values: paper PMC11187126, “Structure and dynamics of the pyroglutamylated RF-amide peptide QRFP receptor GPR103” (Nature Communications, 2024).
